# According to paper PMC12040169 (PLOS Biology, 2025):
# Assay: in vitro
# Details: human, hela cells, % viability
row,SMILES,"viability at 28.5 h, 10 µM [%]"
1,Cc1c(C(=O)O)c(-c2ccc(Cl)cc2)cn1CCO [CBK286959],87
2,CC1CC(Nc2ccccc2)c2ccccc2N1C(=O)CCCC(=O)O (stereo not shown) [CBK286960],89.3
3,O=C(O)CCc1nc2ccccc2n1C1CCCCC1 [CBK286961],87.5
4,Cc1ccc(S(=O)(=O)N2CCSC2C(=O)O)cc1 (stereo not shown) [CBK286964],86.8
5,Cc1nc(=O)c(-c2ccccc2)c(C)n1-c1cccc(C(=O)O)c1 [CBK286965],94.3
6,O=C(O)c1cccc(N2N=C(c3ccccc3)CC2=O)c1 [CBK286966],96.5
7,O=C(O)C1C2CCC(C2)C1C(=O)NCCCCc1ccccc1 (stereo not shown) [CBK286967],91.1
8,Cc1cc(C)nc(NC2=NC(=O)CC(C(=O)O)N2c2ccc(Cl)cc2Cl)n1 (stereo not shown) [CBK286968],94.5
9,COc1ccccc1C(CC(=O)O)c1ccc2c(c1)OCO2 (stereo not shown) [CBK286971],91.2
10,O=C(O)c1cc(NC(=O)C2CCCCC2)cc(C(=O)O)c1 [CBK286972],103
11,COc1ccc(CC(CC(=O)O)C(=O)Nc2ccc(OC)cc2)cc1 (stereo not shown) [CBK286975],87.9
12,Cn1c(CNc2ccccc2C(=O)O)c(C#N)c2ccccc21 [CBK286977],88.7
13,CCn1cc(C(=O)O)c(=O)c2cc(F)c(N3CCN(C(=O)c4ccc(C)cc4)CC3)cc21 [CBK286986],99.6
14,O=C(O)C1C2C=CC3(CN(c4ccccc4)C(=O)C13)O2 (stereo not shown) [CBK286992],87.4
15,Cc1ccc(C(=O)c2cccc(N3C(=O)c4ccc(C(=O)O)cc4C3=O)c2)cc1C [CBK286994],110
16,CC(NC(=O)/C=C\C(=O)O)c1ccc2c(c1)OCO2 (stereo not shown) [CBK286996],93.3
17,O=C(O)C1CC(=O)N(c2ccc(Br)cc2)C1 (stereo not shown) [CBK286998],87.7
18,NC(CC(=O)O)c1ccc(OCc2ccccc2)cc1 (stereo not shown) [CBK286999],80.9
19,O=C(O)CNC1=NC2(CCCCC2)Cc2ccccc21 [CBK287001],78.2
20,Cc1ccc2nc(NCC(=O)O)nc(-c3ccccc3)c2c1 [CBK287002],84.4
21,Cc1cccc(-n2nnnc2SC(C)C(=O)O)c1 (stereo not shown) [CBK287003],90.1
22,CC1=CC(C)C(CN2CC34C=CC(O3)C(C(=O)O)C4C2=O)C(C)C1 (stereo not shown) [CBK287005],96.1
23,O=C(O)c1cc(NCc2cccc(F)c2F)n[nH]1 [CBK287006],93.4
24,CCCNC(=O)Nc1ccc(Cl)c(C(=O)O)c1 [CBK287009],85.6

row,SMILES,"viability at 28.5 h, 10 µM [%]"
1,O=C(O)COc1ccc(N2C(=O)C(O)=C(C(=O)c3ccccc3)C2c2cccc(F)c2)cc1 (stereo not shown) [CBK287010],96.8
2,Cc1nn2c(=O)c(CCC(=O)O)c(C)[nH]c2c1-c1ccccc1 [CBK287011],92.4
3,CN1C(C(=O)O)=CC(c2ccc(F)cc2)=NS1(=O)=O [CBK287016],97.7
4,O=C(O)COc1ccccc1/C=C/c1cc(C(F)(F)F)[nH]c(=O)n1 [CBK287017],103
5,COc1cc(C(=O)O)cc2c1NC(c1ccc(C(=O)O)cc1)C1CC=CC21 (stereo not shown) [CBK287018],90.3
6,CC(=O)N1CCN(C(=O)C2C(C(=O)O)C2(C)C)CC1 (stereo not shown) [CBK287021],102
7,O=C(O)C1CCCN1C(=O)c1ccc(C#CC2(O)CCCCC2)cc1 (stereo not shown) [CBK287022],105
8,Cc1ccc(OCC(=O)Nc2cccc(C(=O)O)c2)cc1 [CBK287023],110
9,Cc1ccc(Cl)cc1N1CCN(C(=O)C2C3C=CC(C3)C2C(=O)O)CC1 (stereo not shown) [CBK287025],117
10,CC(C)(C)OC(=O)NCCCn1cc(C(=O)O)nn1 [CBK287028],90.4
11,CC(C)(C)OC(=O)NCC1(CC(=O)O)CCCCC1 [CBK287030],93
12,O=C(O)C1CCCCC1C(=O)NCCN1CCCCC1 (stereo not shown) [CBK287031],91.4
13,CCOCCN1C[C@@H](C(F)(F)F)[C@H](C(=O)O)C1 [CBK287033],91.9
14,COc1ccccc1C(=O)Nc1ccc(Cl)c(C(=O)O)c1 [CBK287034],82.1
15,O=C(O)C(=O)c1cn(Cc2ccccc2Cl)c2ccccc12 [CBK287035],88.8
16,CC1=CC(c2ccccc2)N2N=C(NC(=O)CCCC(=O)O)NC2=N1 (stereo not shown) [CBK287037],81.1
17,O=C(O)c1ccccc1C(=O)Nc1c(-c2ccccc2)nc2ccccn12 [CBK287041],96.2
18,CC(CC(=O)O)CC(=O)NC1CCN(Cc2ccccc2)CC1 (stereo not shown) [CBK287042],91.4
19,Cc1cccc(N2CCN(C(=O)C3C4CCC(O4)C3C(=O)O)CC2)c1C (stereo not shown) [CBK287044],90
20,O=C(O)CCC1NC(=O)N(C2CCCCC2)C1=O (stereo not shown) [CBK287046],77.3
21,Cc1ccc(-n2nnnc2SCC(=O)O)cc1 [CBK287048],94.1
22,COc1ccc(-c2nc3ccccn3c2CN2CCC(C(=O)O)CC2)cc1 [CBK287052],88.4
23,CC(C)C1(C)N=C(c2nc3ccccc3cc2C(=O)O)NC1=O (stereo not shown) [CBK287057],86.1
24,Cc1cc(=O)oc2cc(OCC(=O)Nc3cccc(C(=O)O)c3)ccc12 [CBK287058],85

row,SMILES,"viability at 28.5 h, 10 µM [%]"
1,O=C(O)CCC(=O)N(Cc1ccco1)C1CC(=O)N(c2ccc(F)cc2)C1=O (stereo not shown) [CBK287059],92.1
2,Cc1nc(=O)c(-c2ccccc2)c(C)n1CCCCCC(=O)O [CBK287060],113
3,CC(NC(=O)C1C2CCC(CC2)C1C(=O)O)c1ccncc1 (stereo not shown) [CBK287061],102
4,CCCNC(C)C(=O)Nc1c(C)csc1C(=O)O (stereo not shown) [CBK287064],113
5,O=C(O)c1cccc(N2C(=O)C3C4C=CC(CO)(O4)C3C2=O)c1 (stereo not shown) [CBK287066],103
6,O=C(O)/C=C\C(=O)Nc1ccccc1C(=O)N1CCOCC1 [CBK287067],100
7,O=C(NC[C@H]1CC[C@H](C(=O)O)CC1)c1cc2ccccc2[nH]1 [CBK287069],105
8,O=C(O)CCc1nc(-c2ccc3[nH]ccc3c2)no1 [CBK287070],99.3
9,CS(=O)(=O)N1CCCc2cc(C(=O)O)ccc21 [CBK287072],93
10,CC(=O)Nc1ccc(NC(=O)[C@H]2CCCC[C@H]2C(=O)O)cc1 [CBK287073],99.6
11,CCOC(=O)N1CCN(C(=O)CCC(=O)O)CC1 [CBK287075],97.3
12,O=C(O)CCSc1nc(-c2ccccc2)cc(=O)[nH]1 [CBK287076],102
13,CC(C)(C)NS(=O)(=O)c1ccc(OCC(=O)O)cc1 [CBK287077],100
14,Cc1c(CC(=O)O)c2c(n1Cc1ccc(F)cc1)CCCC2=O [CBK287078],103
15,O=C(O)c1[nH]n(-c2ccc(Cl)cc2)c(=O)c1CCO [CBK287079],101
16,CC1CCC(C(=O)NC(Cc2ccccc2)C(=O)O)CC1 (stereo not shown) [CBK287080],90.5
17,COc1ccc(OC)c(NC(=O)c2ccccc2C(=O)O)c1 [CBK287082],86.9
18,O=C(O)CNC(=O)CNC(=O)C12CC3CC(CC(C3)C1)C2 [CBK287083],81.4
19,COc1ccc(S(=O)(=O)N(C)CC(=O)O)cc1 [CBK287086],85.9
20,O=C(O)[C@H](Cc1ccccc1)Nc1ncnc2[nH]cnc12 [CBK287090],87
21,O=C(NCC1CCCO1)[C@H]1CCCC[C@H]1C(=O)O (stereo partly shown) [CBK287104],88.7
22,CC(C)CNS(=O)(=O)c1ccc(CCC(=O)O)cc1 [CBK287107],80.9
23,COc1ccc(OCC(=O)Nc2ccc(C(=O)O)c(Cl)c2)cc1 [CBK287108],104
24,Cc1nc(-c2ccccc2)nc2c1c(N)nn2CC(=O)O [CBK287109],95.1

row,SMILES,"viability at 28.5 h, 10 µM [%]"
1,O=C1CC(c2ccccc2)c2snc(C(=O)O)c2N1 (stereo not shown) [CBK287111],90.5
2,O=C(O)c1ccccc1C(=O)NCCC1=CCCCC1 [CBK287113],87.8
3,Cc1ccc(S(=O)(=O)N(CC(=O)O)c2ccc(C(C)C)cc2)cc1 [CBK287116],85.3
4,CN(C(=O)c1ccccc1C(=O)O)C1CC(C)(C)NC(C)(C)C1 [CBK287117],98.2
5,O=C1CC(c2ccc(C(=O)O)cc2)c2sccc2N1 (stereo not shown) [CBK287119],91.9
6,COc1ccc(-c2cc(C(=O)NCC(=O)O)c(C)o2)cc1OC [CBK287130],86.7
7,COc1ccc(C2NC(C(=O)O)CS2)cc1CN1CCOCC1 (stereo not shown) [CBK287132],87.4
8,CC(C)(C)c1oc(C(=O)O)cc1CN1CCCC1 [CBK287136],84.7
9,CN1CCN(c2cc3c(cc2F)c(=O)c(C(=O)O)cn3-c2ccc(F)cc2)CC1 [CBK287138],78.4
10,CCCOc1ccc(C(CC(=O)O)NS(=O)(=O)c2ccc(F)cc2)cc1 (stereo not shown) [CBK287139],102
11,O=C(O)c1ccc(N2CCCCS2(=O)=O)cc1Cl [CBK287142],84.5
12,CC(C)(C)OC(=O)N1CCN(CCC(=O)O)CC1 [CBK287143],101
13,COc1cccc(C(=O)N2Cc3ccccc3CC2C(=O)O)c1 (stereo not shown) [CBK287150],102
14,CS(=O)(=O)N(CC(=O)O)c1ccc2c(c1)OCCO2 [CBK287151],96.6
15,CCCNS(=O)(=O)c1cc(C(=O)O)ccc1OC [CBK287152],98
16,CCCCC(C(=O)O)N1C(=O)c2ccccc2C1=O (stereo not shown) [CBK287153],101
17,Cc1ccccc1OCC(=O)NCc1ccc(C(=O)O)cc1 [CBK287155],104
18,O=C(O)CNC(=O)CN1C(=O)c2cc(Cl)c(Cl)cc2C1=O [CBK287156],92.3
19,O=C(O)CC1C(=O)NCCN1Cc1c(F)cccc1Cl (stereo not shown) [CBK287157],88.6
20,CCC(NC(=O)c1ccc(C#CC2(O)CCCCC2)cc1)C(=O)O (stereo not shown) [CBK287160],96.8
21,CC(=O)N(C)c1ccc(NC(=O)/C=C/C(=O)O)cc1 [CBK287162],87

# Same assay, conditions: human, hela cells, % viability, bulk resorufin, single well
row,SMILES,"viability at 28.5 h, 10 µM [%]"
1,O=C(O)Cn1cc(C(=O)c2ccccc2F)c2ccccc21 [CBK287100],92.7
